Results as given in PubChem BioAssay (NCI).
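Compound exposure: 48 hours, 5 concentrations, 96-well plates. Here, GI50 denotes the concentration required for 50% inhibition of growth. TGI: total growth inhibition.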

Tests used:
Test in all cases: growth of human tumour cells (NCI), 48 h
SK-MEL-28 melanoma = system: SK-MEL-28 melanoma
K-562 leukemia = system: K-562 leukemia
BT-549 breast = system: BT-549 breast
NCI/ADR-RES ovarian = system: NCI/ADR-RES ovarian
MDA-MB-231 breast = system: MDA-MB-231 breast
A549 NSCLC = system: A549 NSCLC
UO-31 renal = system: UO-31 renal
MALME-3M melanoma = system: MALME-3M melanoma
HCT-116 colon = system: HCT-116 colon
NCI-H522 lung = system: NCI-H522 lung
CCRF-CEM leukemia = system: CCRF-CEM leukemia
NCI-H460 lung = system: NCI-H460 lung
LOX IMVI melanoma = system: LOX IMVI melanoma
OVCAR-3 ovarian = system: OVCAR-3 ovarian
CAKI-1 renal = system: CAKI-1 renal
MCF7 breast = system: MCF7 breast
SNB-75 CNS = system: SNB-75 CNS
RXF 393 renal = system: RXF 393 renal
786-0 renal = system: 786-0 renal
MDA-MB-435 = system: MDA-MB-435
SR leukemia = system: SR leukemia
OVCAR-8 ovarian = system: OVCAR-8 ovarian
UACC-257 melanoma = system: UACC-257 melanoma
TK-10 renal = system: TK-10 renal
SF-539 CNS = system: SF-539 CNS
U251 CNS = system: U251 CNS
OVCAR-4 ovarian = system: OVCAR-4 ovarian
SK-MEL-2 melanoma = system: SK-MEL-2 melanoma
SNB-19 CNS = system: SNB-19 CNS
HS 578T breast = system: HS 578T breast
SK-OV-3 ovarian = system: SK-OV-3 ovarian
DU-145 prostate = system: DU-145 prostate
HOP-62 NSCLC = system: HOP-62 NSCLC
T-47D breast = system: T-47D breast
PC-3 prostate = system: PC-3 prostate
HL-60(TB) leukemia = system: HL-60(TB) leukemia
RPMI-8226 leukemia = system: RPMI-8226 leukemia
MOLT-4 leukemia = system: MOLT-4 leukemia
NCI-H23 lung = system: NCI-H23 lung
COLO 205 colon = system: COLO 205 colon
IGROV1 ovarian = system: IGROV1 ovarian
OVCAR-5 ovarian = system: OVCAR-5 ovarian
SK-MEL-5 melanoma = system: SK-MEL-5 melanoma
HOP-92 NSCLC = system: HOP-92 NSCLC
SN12C renal = system: SN12C renal
HT29 colon = system: HT29 colon
UACC-62 melanoma = system: UACC-62 melanoma
EKVX NSCLC = system: EKVX NSCLC
ACHN renal = system: ACHN renal
HCT-15 colon = system: HCT-15 colon
M14 melanoma = system: M14 melanoma
NCI-H226 lung = system: NCI-H226 lung
SF-295 CNS = system: SF-295 CNS
KM12 colon = system: KM12 colon
SW-620 colon = system: SW-620 colon
SF-268 CNS = system: SF-268 CNS

## Cc1ccc(NC2=N[C@]34CC(=O)CC[C@]3(C)[C@H]3CC[C@]5(C)C(=O)CC[C@H]5[C@@H]3C[C@@H]4S2)c(C)c1
SK-MEL-28 melanoma
  GI50: 2.31 µM
  TGI: 6.08 µM
K-562 leukemia
  GI50: 2.86 µM
  TGI: > 100 µM
BT-549 breast
  GI50: 1.49 µM
  TGI: 2.94 µM
NCI/ADR-RES ovarian
  GI50: 2.91 µM
  TGI: > 100 µM
MDA-MB-231 breast
  GI50: 2.33 µM
  TGI: 7.92 µM
A549 NSCLC
  GI50: 3.5 µM
  TGI: > 100 µM
UO-31 renal
  GI50: 1.34 µM
  TGI: 2.86 µM
MALME-3M melanoma
  GI50: 1.99 µM
  TGI: 5.55 µM
HCT-116 colon
  GI50: 1.49 µM
  TGI: 2.85 µM
NCI-H522 lung
  GI50: 1.68 µM
  TGI: 3.28 µM
CCRF-CEM leukemia
  GI50: 2.45 µM
  TGI: > 100 µM
NCI-H460 lung
  GI50: 2.7 µM
  TGI: 8.39 µM
LOX IMVI melanoma
  GI50: 1.64 µM
  TGI: 3.13 µM
OVCAR-3 ovarian
  GI50: 2.18 µM
  TGI: 5.03 µM
CAKI-1 renal
  GI50: 2.83 µM
  TGI: > 100 µM
MCF7 breast
  GI50: 2.31 µM
  TGI: > 100 µM
SNB-75 CNS
  GI50: 2.19 µM
  TGI: 97.5 µM
RXF 393 renal
  GI50: 1.74 µM
  TGI: 3.23 µM
786-0 renal
  GI50: 1.62 µM
  TGI: 3.07 µM
MDA-MB-435
  GI50: 3.02 µM
  TGI: > 100 µM
SR leukemia
  GI50: 2.32 µM
  TGI: > 100 µM
OVCAR-8 ovarian
  GI50: 2.63 µM
  TGI: 7.26 µM
UACC-257 melanoma
  GI50: 3.7 µM
  TGI: > 100 µM
TK-10 renal
  GI50: 2.46 µM
  TGI: 6.7 µM
SF-539 CNS
  GI50: 1.62 µM
  TGI: 3.08 µM
U251 CNS
  GI50: 1.69 µM
  TGI: 3.21 µM
OVCAR-4 ovarian
  GI50: 3.83 µM
  TGI: > 100 µM
SK-MEL-2 melanoma
  GI50: 2.19 µM
  TGI: 4.74 µM
SNB-19 CNS
  GI50: 2.12 µM
  TGI: 5.09 µM
HS 578T breast
  GI50: 3.75 µM
  TGI: > 100 µM
SK-OV-3 ovarian
  GI50: 9.85 µM
  TGI: > 100 µM
DU-145 prostate
  GI50: 2.04 µM
  TGI: 5.18 µM
HOP-62 NSCLC
  GI50: 2.43 µM
  TGI: 6.92 µM
T-47D breast
  GI50: 2.89 µM
  TGI: > 100 µM
PC-3 prostate
  GI50: 1.86 µM
  TGI: 4.53 µM
HL-60(TB) leukemia
  GI50: 2.47 µM
  TGI: 6.03 µM
RPMI-8226 leukemia
  GI50: 2.43 µM
  TGI: 6.25 µM
MOLT-4 leukemia
  GI50: 2.49 µM
  TGI: > 100 µM
NCI-H23 lung
  GI50: 2.01 µM
  TGI: 4.85 µM
COLO 205 colon
  GI50: 2.5 µM
  TGI: 6.54 µM
IGROV1 ovarian
  GI50: 2.11 µM
  TGI: 5.14 µM
OVCAR-5 ovarian
  GI50: 2.9 µM
  TGI: > 100 µM
SK-MEL-5 melanoma
  GI50: 1.86 µM
  TGI: 3.73 µM
HOP-92 NSCLC
  GI50: 1.72 µM
  TGI: 3.86 µM
SN12C renal
  GI50: 2.17 µM
  TGI: 5.07 µM
HT29 colon
  GI50: 2.55 µM
  TGI: 7.04 µM
UACC-62 melanoma
  GI50: 1.72 µM
  TGI: 3.94 µM

## CC1=NN(C(=O)c2ccc(Cl)cc2)C(=O)C1N=Nc1ccc(S(=O)(=O)Nc2ncccn2)cc1 (stereo not drawn)
SK-MEL-28 melanoma
  TGI: > 100 µM
K-562 leukemia
  TGI: > 100 µM
BT-549 breast
  TGI: > 100 µM
EKVX NSCLC
  TGI: > 100 µM
NCI/ADR-RES ovarian
  TGI: > 100 µM
MDA-MB-231 breast
  TGI: > 100 µM
ACHN renal
  TGI: > 100 µM
A549 NSCLC
  TGI: > 100 µM
HCT-15 colon
  TGI: > 100 µM
M14 melanoma
  TGI: > 100 µM
UO-31 renal
  TGI: > 100 µM
MALME-3M melanoma
  TGI: > 100 µM
HCT-116 colon
  TGI: > 100 µM
NCI-H522 lung
  TGI: > 100 µM
NCI-H460 lung
  TGI: > 100 µM
LOX IMVI melanoma
  TGI: > 100 µM
OVCAR-3 ovarian
  TGI: > 100 µM
NCI-H226 lung
  TGI: > 100 µM
CAKI-1 renal
  TGI: > 100 µM
MCF7 breast
  TGI: > 100 µM
SNB-75 CNS
  TGI: > 100 µM
RXF 393 renal
  TGI: > 100 µM
786-0 renal
  TGI: > 100 µM
MDA-MB-435
  TGI: > 100 µM
SR leukemia
  TGI: > 100 µM
OVCAR-8 ovarian
  TGI: > 100 µM
SF-295 CNS
  TGI: > 100 µM
UACC-257 melanoma
  TGI: > 100 µM
TK-10 renal
  TGI: > 100 µM
KM12 colon
  TGI: > 100 µM
SF-539 CNS
  TGI: > 100 µM
U251 CNS
  TGI: > 100 µM
OVCAR-4 ovarian
  TGI: > 100 µM
SK-MEL-2 melanoma
  TGI: > 100 µM
SNB-19 CNS
  TGI: > 100 µM
SW-620 colon
  TGI: > 100 µM
HS 578T breast
  TGI: > 100 µM
SK-OV-3 ovarian
  TGI: > 100 µM
DU-145 prostate
  TGI: > 100 µM
HOP-62 NSCLC
  TGI: > 100 µM
SF-268 CNS
  TGI: > 100 µM
T-47D breast
  TGI: > 100 µM
PC-3 prostate
  TGI: 5.11 µM
HL-60(TB) leukemia
  TGI: > 100 µM
MOLT-4 leukemia
  TGI: > 100 µM
NCI-H23 lung
  TGI: > 100 µM
COLO 205 colon
  TGI: > 100 µM
IGROV1 ovarian
  TGI: > 100 µM
OVCAR-5 ovarian
  TGI: > 100 µM
SK-MEL-5 melanoma
  TGI: > 100 µM
HOP-92 NSCLC
  TGI: 2.07 µM
SN12C renal
  TGI: > 100 µM
HT29 colon
  TGI: > 100 µM
UACC-62 melanoma
  TGI: > 100 µM
